These results are taken from paper PMC12880750, “Mechanistic insights and in vivo HIV suppression by the BRD4-targeting small molecule ZL0580” (PLOS Pathogens, 2026).

One test concerns BRD4 BD1. Also on record: method as in PMID 31329163. As to conditions: in vitro binding affinity; cited from earlier work.
The test system of test [1] is HIV-1 JR-CSF. As to the kind of experiment: Cell-associated HIV DNA in blood cells of Hu-mice. The class given is in vivo, CD34+ Hu-NSG mice (Hu-mice). The conditions noted are these: qPCR, per 10^7 PB cells. The text has this:
To assess whether ZL0580 or ART affects HIV DNA levels, we quantified cell-associated HIV DNA in the peripheral blood of Hu-mice after treatments. Blood cells collected at weeks 7, 11 and 13 were subjected to DNA extraction and quantification of HIV DNA by qPCR. […] By week 13, HIV DNA levels also remained similar across all groups (Fig 7C).
Mice were 16-week-old at the initiation of the experiments. All mice received human CD34 + stem cells of a single donor and human immune cell reconstitution was confirmed for all mice. A total of 12 Hu-mice were initially included in the study with each tagged and assigned with a unique ID. […] Blood/plasma viral loads were monitored and quantified weekly by a single-step RT-qPCR until systemic HIV infection was established. […] Plasma samples were collected from mice either weekly or biweekly for quantification of viral loads (RNA copies). Blood cells were also collected at weeks 7 and 13 for quantification of cell-associated HIV DNA in blood. Mouse weights were monitored after treatment.
Quantification of cell-associated HIV DNA in blood cells was performed by qPCR as previously described with modifications. Blood cells were counted and subjected to DNA extraction using the Qiagen QIAamp DNA Blood Mini Kit (QIAGEN). qPCR primers and probe: Forward: 5′-[…]-3′, Reverse: 5′-[…]-3′, Probe: 5’-/5HEX/[…]/ZEN/GCC […]/3IABkFQ. […]

For test [2], the system named is WT J-Lat cells (Clone […]). As to the kind of experiment: RT-qPCR validation of differentially expressed genes, WT J-Lat cells. The class given is cell-based, human. The conditions noted are these: 5 μM, 24 h, normalized to GAPDH. How it is done: To validate the RNA-Seq results, RT-qPCR analysis was performed on a subset of differentially expressed genes (DEGs) (Fig 3E). Eight representative DEGs were selected based on statistical significance (adjusted p values) and their involvement in key pathways identified by GSEA, including lipid metabolism/cholesterol biosynthesis (HMGCS1, SQLE, DHCR7) and cytokine signaling (ITK and DUSP8). Relative gene expression levels were normalized to the housekeeping gene GAPDH. […] As an additional control, RT-qPCR was also performed on RNA isolated from BRD4-knockout (KO) J-Lat cells that received the same treatments. The generation and characterization of BRD4-KO J-Lat cells were described previously.
RT-qPCR was performed as previously reported.
A general note: In qPCR the cycle at which signal appears reflects the starting amount.

In test [3] the test system is HIV-1 JR-CSF. As to the kind of experiment: HIV suppression in HIV-infected humanized mice (plasma viral load). The class given is in vivo, CD34+ Hu-NSG mice (Hu-mice). How it is done: Next, at week 0, all12 Hu-mice were intravenously inoculated with a single dose of HIV-1 JR-CSF (equivalent to 10 ng HIV p24 antigen per animal) (Fig 6A). Systemic HIV infection was confirmed in 11 out of the 12 mice at weeks 2 and 3 after HIV inoculation, based on the detection of plasma viral RNAs by a single-step RT-qPCR (Fig 6B-6C). Systemic HIV infection in the Hu-mice was also confirmed by ELISA quantification of plasma HIV p24 antigens at weeks 2 and 3 after HIV inoculation (Fig F in S1 Text). The 11 Hu-mice with successful HIV infection were then randomized into four treatment groups at week 3: empty vehicle control (EV) (n = 2), ART (n = 3), ZL0580 (n = 3), and ART + ZL0580 (n = 3). Drug formulations included: ART (Raltegravir 1.2 mg/mouse, Emtricitabine 3.2 mg/mouse, Tenofovir 3.2 mg/mouse), ZL0580 (3.8 mg/mouse), and a combination of both ART + ZL0580 (same concentration of individual compounds). All drugs were formulated in the buffer consisting of 10% DMSO, 10% Solutol HS 15, and 80% HP-β-CD (20%, w/v). The empty vehicle (EV) group received only the formulation buffer. Treatment regimens were initiated at week 3 and administered daily by intraperitoneal injection (Fig 6A). Plasma viral loads were closely monitored during the treatments.
All humanized mice used in this study weighed approximately 20 grams, and drug dosages were calculated accordingly. The following compounds were administered to mice daily: Raltegravir (Ral) at 60mg/kg (1.2 mg/mouse), Emtricitabine (Emt) at 160mg/kg (3.2 mg/mouse), Tenofovir (Ten) at 160mg/kg (3.2 mg/mouse), and ZL0580 at […] (3.8 mg/mouse). ART drugs were purchased from MedChemExpress. ZL0580 was synthesized in-house as previously reported. All compounds were dissolved in a formulation vehicle composed of 10% DMSO, 10% Solutol HS 15, and 80% hydroxypropyl-β-cyclodextrin (HP-β-CD, 20% w/v). Compounds were administered via intraperitoneal injection daily.
Mice were 16-week-old at the initiation of the experiments. All mice received human CD34 + stem cells of a single donor and human immune cell reconstitution was confirmed for all mice. A total of 12 Hu-mice were initially included in the study with each tagged and assigned with a unique ID. At week 0, all Hu-mice were intravenously (IV) infected with HIV-1 JR-CSF at a single dose of 10ng HIV p24 equivalent virus per animal. Blood/plasma viral loads were monitored and quantified weekly by a single-step RT-qPCR until systemic HIV infection was established. […] At week 3, the remaining 11 Hu-mice were randomized into four groups for subsequent treatments: Empty Vehicle (EV) (n = 2), ART (n = 3), ZL0580 (n = 3), and ART + ZL0580 (n = 3). The control mice received a mixture of DMSO, Solutol HS 15, and hydroxypropyl-β-cyclodextrin (HP-β-CD, 20% w/v), which was considered the empty vehicle control (EV). ART and ZL0580 compounds were administered to mice via intraperitoneal injection daily for four weeks (from week 3 to week 7). […] Plasma samples were collected from mice either weekly or biweekly for quantification of viral loads (RNA copies). Blood cells were also collected at weeks 7 and 13 for quantification of cell-associated HIV DNA in blood. Mouse weights were monitored after treatment.
Viral RNA was isolated from plasma samples using the QIAamp Viral RNA Mini Kit (Qiagen) according to the manufacturer’s instructions. Quantification of viral RNA was performed using the PrimeTime One-Step RT-qPCR Master Mix (IDT) on a CFX Connect Real-Time PCR System (Bio-Rad). […]

Turning to `O=C(Nc1ccc(C(F)(F)F)cc1)Nc1ccc(S(=O)(=O)N2CCC[C@H]2C(=O)Nc2ccccc2)cc1` [ZL0580], the IC50 (in general, the concentration that inhibits the measured activity by half) with BRD4 BD1 is 163 nM. The “HIV DNA copies in peripheral blood cells at week 7, among groups incl. EV control” value in the test on HIV-1 JR-CSF [1] is “no significant differences”. In test [2], the “Expression of HMGCS1, SQLE, DHCR7, ASS1, ITK, DUSP8 relative to NC” value is on record as “upregulated”; the “Expression of KLF10 and WDR52 relative to NC” value was “downregulated”. Besides, the “Delay of viral rebound following TI compared to ART alone” value in the test with HIV-1 JR-CSF [3] (ZL0580 monotherapy) was ~ 2 weeks. Also, the “Plasma viral loads at week 5” value in the test on HIV-1 JR-CSF [3] (after two weeks of daily i.p. treatment, ZL0580 3.8 mg/mouse, ART Raltegravir 1.2, Emtricitabine 3.2, Tenofovir 3.2 mg/mouse) was “nearly undetectable levels”. Further, the “Plasma viral copies at week 7 (mean ± SEM)” value with HIV-1 JR-CSF [3] (end of 4 weeks daily i.p. treatment, n = 3 per group) was 105 ± 28 HIV RNA copies/ml. Moreover, the “Area under the curve (AUC) of viral loads after TI, weeks 7 to 15, compared to EV control” value in the test on HIV-1 JR-CSF [3] (one-way ANOVA) is listed as “significantly suppressed viral rebounds”. Besides, the “Plasma mean viral copies at week 9” value in the test with HIV-1 JR-CSF [3] (two weeks post treatment interruption (TI)) is “undetectable”.
